pIC50: −log10 of the molar value. Where a name gives a salt, the structure may show the parent alone. Read-outs that look alike come from different tables or passages of the source.

The results in this text go back to patent US6242494A, “Substituted β-amino acid inhibitors of methionine aminopeptidase-2” (Abbott Laboratories, priority 1999, dated 2001).

For the assay, the target named is T1, methionine aminopeptidase-2 (MetAP2) (Homo sapiens, UniProt P50579).
T1 construct: made in house; host or cells: insect cells, baculovirus system (secreted, purified from culture supernatant)
The experiment in a line: Inhibition of MetAP2 enzyme activity (96-well, Met-Ala-Ser substrate, L-amino acid oxidase/peroxidase/ortho-dianisidine, 450 nm). The note with it: pH 7.4, Met-Ala-Ser substrate, 20 minutes. The format is biochemical.

The mark [1] stands for this setting: IC50, recombinant MetAP2 4 μg/mL.

T1 sequence (P50579 whole entry): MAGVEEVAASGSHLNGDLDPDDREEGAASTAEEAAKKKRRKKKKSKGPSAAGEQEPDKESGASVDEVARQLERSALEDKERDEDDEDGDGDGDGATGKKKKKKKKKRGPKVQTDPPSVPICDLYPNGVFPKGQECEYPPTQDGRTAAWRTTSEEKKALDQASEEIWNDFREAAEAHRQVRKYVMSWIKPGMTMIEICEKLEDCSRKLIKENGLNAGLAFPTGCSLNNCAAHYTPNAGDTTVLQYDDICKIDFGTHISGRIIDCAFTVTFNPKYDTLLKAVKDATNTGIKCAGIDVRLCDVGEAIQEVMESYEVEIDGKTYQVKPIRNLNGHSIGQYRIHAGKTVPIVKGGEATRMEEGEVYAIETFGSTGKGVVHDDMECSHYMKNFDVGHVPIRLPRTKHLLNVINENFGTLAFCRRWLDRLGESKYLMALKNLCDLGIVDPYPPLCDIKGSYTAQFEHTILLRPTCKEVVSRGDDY

In the case of `N[C@H](CC1CCCCC1)C(O)C(=O)NCc1ccco1` (mixture of isomers) [Example 100, (2RS,3R)-3-Amino-4-cyclohexyl-N-(2-furylmethyl)-2-hydroxybutanamide Hydrochloride], the pIC50 under setting [1] was 5.23.

On to `N[C@H](CC1CCCCC1)C(O)C(=O)NCc1nc2ccccc2[nH]1` (stereo partly drawn) [Example 60, (2RS,3R) N-(2-aminomethylbenzimidazolyl) 3-amino-2-hydroxy-4-cyclohexyl)butanamide hydrochloride], for which the negative-log IC50 (pIC50) under setting [1] was 4.74. The same measure, in the same setting: the value for `N[C@H](CC1CCCCC1)C(O)C(=O)NC1CCc2ccccc21` (mixture of isomers) [Example 228, (2RS,3R)-3-amino-4-cyclohexyl-N-(2,3-dihydro-1H-inden-1-yl)-2-hydroxybutanamide Hydrochloride] was 6.03; that for `N[C@H](CC1CCCCC1)C(O)C(=O)NC1CCC1` (mixture of isomers) [Example 208, (2RS,3R)-3-amino-N-cyclobutyl-4-cyclohexyl-2-hydroxybutanamide Hydrochloride] was 5.57.

As for `COc1ccc(NC(=O)C(O)[C@H](N)CC2CCCCC2)cc1` (mixture of isomers) [Example 145, (2RS,3R)-3-amino-4-cyclohexyl-2-hydroxy-N-(4-methoxyphenyl)butanamide], under setting [1], the pIC50 is 5.92. Same read-out and setting: the value for `N[C@H](CC1CCCCC1)C(O)C(=O)NCCCCNS(=O)(=O)c1ccc2ccccc2c1` (mixture of isomers) [Example 87, (2RS,3R)-3-amino-4-cyclohexyl-2-hydroxy-N-(4-((2-naphthylsulfonyl)amino)butyl)butanamide hydrochloride] was 5.57; that for `COc1cccc(CCNC(=O)C(O)[C@H](N)CC2CCCCC2)c1` (mixture of isomers) [Example 196, (2RS,3R)-3-amino-4-cyclohexyl-2-hydroxy-N-(3-methoxyphenethyl)butanamide hydrochloride] was 6.09.

On to `COC(=O)c1ccc(COC(=O)[C@H](C)NC(=O)C(O)[C@H](N)CC2CCCCC2)cc1` (stereo partly drawn) [Example 94, (2RS,3R)-3-Amino-2-hydroxy-4-cyclohexyl)butanoyl-L-alanine 4-methoxycarbonylbenzyl Ester Hydrochloride], for which the pIC50 under setting [1] is 6.04. `N[C@H](CC1CCCCC1)C(O)C(=O)NC(CO)CO` (mixture of isomers) [Example 136, (2RS,3R)-3-amino-4-cyclohexyl-2-hydroxy-N-(2-hydroxy-1-(hydroxymethyl)ethyl)butanamide trifluoroacetate]: the negative logarithm of the IC50 (pIC50) under setting [1] is 5.74. On the same count and under the same terms, next, `N[C@H](CC1CCCCC1)C(O)C(=O)NCCc1ccc(Oc2ccccc2)cc1` (mixture of isomers) [Example 168, (2RS,3R)-3-amino-4-cyclohexyl-2-hydroxy-N-(4-phenoxyphenethyl)butanamide hydrochloride]: 5.82; `C[C@H](NC(=O)C(O)[C@H](N)CC1CCCCC1)c1cccc2ccccc12` (mixture of isomers) [Example 133, (2RS,3R)-3-amino-4-cyclohexyl-2-hydroxy-N-((1S)-1-(1-naphthyl)ethyl)butanamide hydrochloride]: 6.57. The same measure, in the same setting: the value for `CCOC(=O)C(C)(C)NC(=O)C(O)[C@H](N)CCSCC` (stereo partly shown) [Example 35, hydrochloride] was 6.96; that for `CCOC(=O)C1CCN(C(=O)[C@H](C)NC(=O)C(O)[C@H](N)CC2CCCCC2)CC1` (stereo partly drawn) [Example 63, ((2RS,3R)-3-amino-2-hydroxy-4-cyclohexyl)butanoyl-L-alanyl-(ethylisonipecotate)amide hydrochloride] was 4.70.

In the case of `Cc1ccc(NC(=O)C(O)[C@H](N)CC2CCCCC2)cc1` (mixture of isomers) [Example 143, (2RS,3R)-3-amino-4-cyclohexyl-2-hydroxy-N-(4-methylphenyl)butanamide], the pIC50 under setting [1] was 6.06.

Regarding `N[C@H](CC1CCCCC1)C(O)C(=O)Nc1ccccc1OC(F)(F)F` (stereo partly drawn) [Example 169, (2RS,3R)-3-amino-4-cyclohexyl-2-hydroxy-N-(2-(trifluoromethoxy)phenyl)butanamide hydrochlordie], the pIC50 under setting [1] was 5.48. Still for that read-out and setting: next, `N[C@H](CC1CCCCC1)C(O)C(=O)Nc1cccc(OCc2ccccc2)c1` (mixture of isomers) [Example 223, (2RS,3R)-3-amino-N-(3-(benzyloxy)phenyl)-4-cyclohexyl-2-hydroxybutanamide Hydrochloride]: 6.06; `N[C@H](CC1CCCCC1)C(O)C(=O)N[C@@H](CO)C(=O)OCc1ccc(C(F)(F)F)cc1` (stereo partly drawn) [Example 140, 4-(trifluoromethyl)benzyl (2RS,3R,2'S)-2-((3-amino-4-cyclohexyl-2-hydroxybutanoyl)amino)-3-hydroxypropanoate trifluoroacetate]: 5.66; `COc1cc(CCNC(=O)[C@H](C)NC(=O)C(O)[C@H](N)CC2CCCCC2)ccc1O` (stereo partly drawn) [Example 66, ((2RS,3R)-3-amino-2-hydroxy-4-cyclohexyl)butanoyl-L-alanyl-(3-O-methoxydopamine)amide hydrochloride]: 5.00. For the compound `COc1ccc(CCNC(=O)C(O)[C@H](N)CCSC)cc1` (stereo partly drawn) [Example 27, (2RS,3R)-3-amino-2-hydroxy-N-(4-methoxyphenethyl)-5-(methylthio)pentanamidehydrochloride], the negative-log IC50 (pIC50) under setting [1] is 5.77. The same measure, in the same setting: the value for `N[C@H](CC1CCCCC1)C(O)C(=O)NCC1CCCCC1` (mixture of isomers) [Example 205, (2RS,3R)-3-amino-4-cyclohexyl-N-(cyclohexylmethyl)-2-hydroxybutanamide Hydrochloride] was 5.60; that for `CCOC(=O)CN(C)C(=O)C(O)[C@H](N)CCSCC` (stereo partly shown) [Example 39, hydrochloride] was 5.29; that for `N[C@H](CC1CCCCC1)C(O)C(=O)NCc1cc(C(F)(F)F)cc(C(F)(F)F)c1` (mixture of isomers) [Example 237, (2RS,3R)-3-amino-N-(3,5-bis(trifluoromethyl)benzyl)-4-cyclohexyl-2-hydroxybutanamide Hydrochloride] was 5.29. On the same count and under the same terms, the value for `N[C@H](CC1CCCCC1)C(O)C(=O)Nc1cccc(Oc2ccccc2)c1` (mixture of isomers) [Example 162, (2RS,3R)-3-amino-4-cyclohexyl-2-hydroxy-N-(3-phenoxyphenyl)butanamide hydrochloride] was 5.92; that for `N[C@H](CC1CCCCC1)C(O)C(=O)Nc1ccc(Cl)cc1` (mixture of isomers) [Example 147, (2RS,3R)-3-amino-N-(4-chlorophenyl)-4-cyclohexyl-2-hydroxybutanamide] was 6.00; that for `CCOC(=O)CCNC(=O)C(O)[C@H](N)CC1CCCCC1` (stereo partly drawn) [Example 24, (2RS,3R)-N-(2-(carboethoxy)ethyl)-3-amino-2-hydroxy-4-cyclohexyl-butanamidehydrochloride] was 6.00. Take `CC(C)(C)c1ccc(CNC(=O)C(O)[C@H](N)CC2CCCCC2)cc1` (stereo partly drawn) [Example 156, (2RS,3R)-3-amino-N-(4-tert-butyl)benzyl-4-cyclohexyl-2-hydroxybutanamide]: the pIC50 under setting [1] was 5.41.

For the compound “(2RS,3R)-3-Amino-2-hydroxy-4-cyclohexyl)butanoyl-L-alanine Cyclopropyl Ester Hydrochloride [Example 92]”, under “recombinant MetAP2 4 μg/mL, read-out: IC50”, the negative-log IC50 (pIC50) was 5.85.

As to `Cc1ccc([N+](=O)[O-])cc1NC(=O)C(O)[C@H](N)CC1CCCCC1` (mixture of isomers) [Example 184, (2RS,3R)-3-amino-4-cyclohexyl-2-hydroxy-N-(2-methyl-5-nitrophenyl)butanamide hydrochloride], the negative logarithm of the IC50 (pIC50) under setting [1] was 6.37. Same read-out and setting: the value for `N[C@H](CC1CCCCC1)C(O)C(=O)NCCCCc1ccccc1` (stereo partly shown) [Example 30, hydrochloride] was 5.96.

Turning to `CSCC[C@@H](N)C(O)C(=O)NCCc1ccc(S(N)(=O)=O)cc1` (stereo partly drawn) [Example 9, (2RS,3R)-N-(2-(4-sulfonamidophenyl)ethyl)-3-amino-2-hydroxy-5-(methylthio)pentanamide hydrochloride], under setting [1], the pIC50 is 5.64. On the same count and under the same terms, next, `N[C@H](CC1CCCCC1)C(O)C(=O)Nc1ccc(Cl)cc1Cl` (mixture of isomers) [Example 154, (2RS,3R)-3-amino-4-cyclohexyl-N-(2,4-dichlorophenyl)-2-hydroxybutanamide]: 5.72. Still for that read-out and setting: next, `C[C@H](NC(=O)C(O)[C@H](N)CC1CCCCC1)C(=O)OCc1ccc(CC(=O)OCC(=O)c2ccccc2)cc1` (stereo partly drawn) [Example 96, (2RS,3R)-3-Amino-2-hydroxy-4-cyclohexyl)butanoyl-L-alanine-(4-(methyl)phenyl Acetic Acid Phenacyl Ester) Hydrochloride]: 5.54; `C[C@H](NC(=O)C(O)[C@H](N)CC1CCCCC1)C(=O)NCc1nc2ccccc2[nH]1` (stereo partly drawn) [Example 67, ((2RS,3R)-3-amino-2-hydroxy-4-cyclohexyl)butanoyl-L-alanyl-(2-benzimidazolemethyl)amide hydrochloride]: 4.89; `N[C@H](CC1CCCCC1)C(O)C(=O)NCCc1ccc(F)cc1` (mixture of isomers) [Example 142, (2RS,3R)-3-amino-4-cyclohexyl-N-(4-fluorophenethyl)-2-hydroxybutanamide hydrochloride]: 6.40. Still for that read-out and setting: next, `C[C@H](NC(=O)C(O)[C@H](N)CC1CCCCC1)C(=O)Nc1cc(-c2ccccc2)[nH]n1` (stereo partly drawn) [Example 68, ((2RS,3R)-3-amino-2-hydroxy-4-cyclohexyl)butanoyl-L-alanyl-(5-phenyl-pyrazole-3)amide hydrochloride]: 5.42.

On to `Cc1cc(I)ccc1NC(=O)C(O)[C@H](N)CC1CCCCC1` (mixture of isomers) [Example 173, (2RS,3R)-3-amino-4-cyclohexyl-2hydroxy-N-(4-iodo-2-methylphenyl)butanamide hydrochloride], for which the pIC50 under setting [1] is 6.24. For `COc1cc(NC(=O)C(O)[C@H](N)CC2CCCCC2)cc(OC)c1` (mixture of isomers) [Example 161, (2RS,3R)-3-amino-4-cyclohexyl-N-(3,5-dimethoxyphenyl)-2-hydroxybutanamide hydrochloride], the negative-log IC50 (pIC50) under setting [1] was 6.21.

For orientation: pIC50 means the negative decadic logarithm of the IC50, by convention in mol/L.
